The text below walks through data of patent US7285678B2, “Purification of 2-nitro-4-methylsulphonylbenzoic acid” (Syngenta Limited, priority 2001, dated 2007).

A short description of this data set: Ames test. Format: cell-based. A general note: The Ames test uses bacterial strains that need an amino acid and regain growth without it when mutated back.

For `CS(=O)(=O)c1ccc(C(=O)C2C(=O)CCCC2=O)c([N+](=O)[O-])c1` [Mesotrione, 2-(4-methylsulfonyl-2-nitrobenzoyl)cyclohexane-1,3-dione], the Ames test result runs as follows: (Mesotrione made from NMSBA purified by Example 1 (one pot: filtration, activated carbon, hydrolysis at pH 13, crystallization)) “negative”; (Mesotrione made from NMSBA purified by Example 3 (20, 30 and 40% solids loading)) “negative”. Further, the Ames test response entry (Mesotrione made from NMSBA purified by Example 2, both fractions (with carbon and without carbon)) is “negative”; the Ames test response entry (Mesotrione made from NMSBA purified by Example 4 double isolation, fractions (A) and (B)) was “negative”. The Ames test result (mesotrione made by the known process from NMSBA starting material containing impurities (not purified)) was “positive”.
